Results from paper PMC10935061 (Acta Pharmaceutica Sinica. B, 2023).
pKd: −log10 of the molar value.

Molecular target: Nur77 (Homo sapiens, UniProt P22736)
Assay: SPR
Type: binding

Chain of Nur77 (P22736 360-598 limits assumed): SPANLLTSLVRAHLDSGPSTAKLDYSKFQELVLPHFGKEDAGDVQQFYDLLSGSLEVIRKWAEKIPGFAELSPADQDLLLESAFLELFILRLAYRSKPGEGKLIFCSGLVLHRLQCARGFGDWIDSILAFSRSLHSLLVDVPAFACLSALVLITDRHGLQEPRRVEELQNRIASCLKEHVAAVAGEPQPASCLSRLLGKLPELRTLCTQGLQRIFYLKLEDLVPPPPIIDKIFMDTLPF

pKd: 6.42
Structure (SMILES): CCCCCCCC(=O)c1cc(OC)c(OC)c(OC)c1CC(=O)OCC [TMPA]
